Source: US20250230155A1 (Vanderbilt University, priority 2021, published 2025)

Target: T1, human mAChR M4 (Homo sapiens, UniProt P08173)
T1 construct: expressed in transfected cells
T1 sequence (P08173 1-479): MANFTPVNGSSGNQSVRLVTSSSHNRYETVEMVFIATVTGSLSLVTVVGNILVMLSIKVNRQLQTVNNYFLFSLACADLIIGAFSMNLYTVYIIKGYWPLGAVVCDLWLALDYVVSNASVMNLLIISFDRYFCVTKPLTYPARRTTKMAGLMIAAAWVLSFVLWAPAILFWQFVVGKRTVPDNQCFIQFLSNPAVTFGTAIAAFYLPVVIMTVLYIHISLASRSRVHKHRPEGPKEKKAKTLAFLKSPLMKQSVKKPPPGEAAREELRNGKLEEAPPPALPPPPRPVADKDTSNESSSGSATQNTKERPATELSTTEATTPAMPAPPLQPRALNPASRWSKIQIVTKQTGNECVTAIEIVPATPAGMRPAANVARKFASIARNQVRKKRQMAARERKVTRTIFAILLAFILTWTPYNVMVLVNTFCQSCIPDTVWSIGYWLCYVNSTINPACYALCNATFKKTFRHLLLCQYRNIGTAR
Assay: mAChR M4 cell-based functional assay (calcium mobilization, CHO-K1 hM4-Gqi5 cells)
Settings: for Emax at 30 µM: CHO-K1, % ACh maximum at 30 μM, human M4; for EC50: positive allosteric modulator activity, increase in the EC20 acetylcholine response, CHO-K1 hM4-Gqi5 cells, read-out: Human M4 EC50
Procedure: Human and rat M4 cDNAs, along with the chimeric G protein Gqi5, were transfected into Chinese hamster ovary (CHO-K1) cells purchased from the American Type Culture Collection using Lipofectamine2000. hM4-Gqi5 cells were grown in Ham's F-12 medium containing 10% heat-inactivated fetal bovine serum (FBS), 20 mM HEPES, 50 μg/mL G418 sulfate, and 500 μg/mL Hygromycin B. rM4-Ggi5 cells were grown in DiVEM containing 10% heat-inactivated FBS, 20 mM THEPES, 400 μμg/mL G418 sulfate, and 500 μμg/mL Hygromycin B.
For high throughput measurement of agonist-evoked increases in intracellular calcium, CHO-K1 cells stably expressing muscarinic receptors were plated in growth medium lacking G418 and hygromycin at 15,000 cells/20 μL/well in Greiner 384-well black-walled, tissue culture (TC)-treated, clear-bottom plates (VWR). Cells were incubated overnight at 37° C. and 5% CO2. The next day, cells were washed using an ELX 405 (BioTek) with assay buffer; the final volume was then aspirated to 20 μL. Next, 20 μL of a […] of Fluo-4/acetoxymethyl ester (Invitrogen, Carlsbad, CA), prepared as a 2.3 mM stock in DMSO and mixed in a 1:1 ratio with 10% (w/v) Pluronic F-127 and diluted in assay buffer, was added to the wells and the cell plates were incubated for 50 min at 37° C. and 5% C02. Dye was removed by washing with the ELX 405 and the final volume was aspirated to 20 μL. Compound master plates were formatted in an 11 point concentration-response curve (CRC) format (1:3 dilutions) in 100% DMSO with a starting concentration of 10 mM using a BRAVO liquid handler (Agilent). Test compound CRCs were then transferred to daughter plates (240 nL) using the Echo acoustic plate reformatter (Labcyte, Sunnyvale, CA) and then diluted into assay buffer (40 μL) to a 2× stock using a Thermo Fisher Combi (Thermo Fisher Scientific, Waltham, MA).
Calcium flux was measured using the Functional Drug Screening System (FDSS) 6000 or 7000 (Hamamatsu Corporation, Tokyo, Japan) as an increase in the fluorescent static ratio. Compounds were applied to cells (20 μL, 2×) using the automated system of the FDSS at 2-4 seconds into the protocol and the data were collected at 1 Hz. At 144 seconds, 10 μL of an EC20 concentration of the muscarinic receptor agonist acetylcholine was added (5×), followed by the addition of 12 μL of an EC80 concentration of acetylcholine at the 230 second time point (5×). Agonist activity was analyzed as a concentration-dependent increase in calcium mobilization upon compound addition. Positive allosteric modulator activity was analyzed as a concentration-dependent increase in the EC20 acetylcholine response. Antagonist activity was analyzed as a concentration-dependent decrease in the EC80 acetylcholine response. Concentration-response curves were generated using a four-parameter logistical equation in XLFit curve fitting software (IDBS, Bridgewater, NJ) for Excel (Microsoft, Redmond, WA) or Prism (GraphPad Software, Inc., San Diego, CA).
Compounds were synthesized as described above. Activity (EC50 and Emax) was determined in the mAChR M4 cell-based functional assay as described above and the data are shown in Table 2. The compound number corresponds to the compound numbers used in Table 1.

| Emax at 30 µM | EC50 | Structure (SMILES) |
| --- | --- | --- |
| 113% | 64 nM | Cc1cc(C(=O)N2CC3(COC3)C2)nnc1N1CCc2ncc(N3CCCn4nccc43)cc2C1 [Example 542, (6-(3-(6,7-dihydropyrazolo[1,5-a]pyrimidin-4(5H)-yl)-7,8-dihydro-1,6-naphthyridin-6(5H)-yl)-5-methylpyridazin-3-yl)(2-oxa-6-azaspiro[3.3]heptan-6-yl)methanone] |
| 86% | 647 nM | Cc1nc(Cl)c(C)c(N2CCc3ncc(Oc4cccc(F)c4)cc3C2)n1 [compound 203, 6-(6-chloro-2,5-dimethyl-pyrimidin-4-yl)-3-(3-fluorophenoxy)-7,8-dihydro-5H-1,6-naphthyridine] |
| 68% | 4190 nM | Cc1nc2c(c(N3CCc4ncc(C(F)(F)F)cc4C3)n1)CCCC2 [compound 268, 2-methyl-4-(3-(trifluoromethyl)-7,8-dihydro-1,6-naphthyridin-6(5H)-yl)-5,6,7,8-tetrahydroquinazoline] |
| 57% | 876 nM | Cc1cc(C(=O)NCc2ccnc3ccccc23)cnc1N1CCc2ncccc2C1 [compound 131, 6-(7,8-dihydro-5H-1,6-naphthyridin-6-yl)-5-methyl-N-(4-quinolylmethyl)pyridine-3-carboxamide] |
| 61% | 263 nM | Cc1nc(C)c(C)c(N2CCc3ncc(-c4ccc(-n5ccnc5)nc4)cc3C2)n1 [compound 232, 3-(6-(1H-imidazol-1-yl)pyridin-3-yl)-6-(2,5,6-trimethylpyrimidin-4-yl)-5,6,7,8-tetrahydro-1,6-naphthyridine] |
| 30% | 1220 nM | Cc1nn(C)cc1-c1cnc2c(c1)CN(c1nc(Cl)nc3c1COC3)CC2 [compound 285, 2-chloro-4-(3-(1,3-dimethyl-1H-pyrazol-4-yl)-7,8-dihydro-1,6-naphthyridin-6(5H)-yl)-5,7-dihydrofuro[3,4-d]pyrimidine] |
| 86% | 1080 nM | Cc1cc(C#N)nnc1N1CCc2ncc(-c3ccnn3C)cc2C1 [Example 394, 5-methyl-6-(3-(1-methyl-1H-pyrazol-5-yl)-7,8-dihydro-1,6-naphthyridin-6(5H)-yl)pyridazine-3-carbonitrile] |
| 64% | 2680 nM | Cc1cc(C(=O)NCc2cn3ccccc3n2)cnc1N1CCc2ncccc2C1 [compound 120] |
| 102% | 278 nM | Cc1cnc2c(c1)CN(c1nnc(C(=O)NCc3csc4ccccc34)c(C)c1C)CC2 [Example 470, N-(benzo[b]thiophen-3-ylmethyl)-4,5-dimethyl-6-(3-methyl-7,8-dihydro-1,6-naphthyridin-6(5H)-yl)pyridazine-3-carboxamide] |
| 82% | 992 nM | Cc1cc(C#N)cnc1N1Cc2cc(C(F)(F)F)cnc2C(C)C1 (centres unmarked) [Example 347, 5-methyl-6-(8-methyl-3-(trifluoromethyl)-7,8-dihydro-1,6-naphthyridin-6(5H)-yl)nicotinonitrile] |
| 48% | 1710 nM | COc1ccc(Oc2cnc3c(c2)CN(c2nnc(C#N)c(C)c2C)CC3)cn1 [Example 302, 6-(3-((6-methoxypyridin-3-yl)oxy)-7,8-dihydro-1,6-naphthyridin-6(5H)-yl)-4,5-dimethylpyridazine-3-carbonitrile] |
| 75% | 888 nM | Cc1cc(C(=O)NCc2ccc(C#N)nc2)cnc1N1CCc2ncc(-c3cn(C)nc3C)cc2C1 [Example 456, N-((6-cyanopyridin-3-yl)methyl)-6-(3-(1,3-dimethyl-1H-pyrazol-4-yl)-7,8-dihydro-1,6-naphthyridin-6(5H)-yl)-5-methylnicotinamide] |
| 83% | 158 nM | [2H]C1([2H])Cc2ncc(Nc3cccnc3C)cc2C([2H])([2H])N1c1nnc(C#N)cc1C [Example 604, 5-methyl-6-(3-((2-methylpyridin-3-yl)amino)-7,8-dihydro-1,6-naphthyridin-6(5H)-yl-5,5,7,7-d4)pyridazine-3-carbonitrile] |
